Earlier results on three compounds are cited in patent publication US10159714B2, “Compositions, devices and methods of use thereof for the treatment of cancers” (Intarcia Therapeutics, Inc., priority 2011, dated 2018).

For data set [1], the system named is prostatic tumors in Noble and Dunning male rats and DMBA-induced mammary tumors in female rats. The settings on record: hormone-dependent tumors in rats.
Data set [2] has as its system gonadotropin secretion / testosterone.
For a further data set, the system named is fasting hyperglycemia. The settings on record: type 2 diabetic patients.

Where no end group is shown, it is not given here.

As to `CCNC(=O)[C@@H]1CCCN1C(=O)[C@H](CCCNC(=N)N)NC(=O)[C@H](CC(C)C)NC(=O)[C@@H](CC(C)C)NC(=O)[C@H](Cc1ccc(O)cc1)NC(=O)[C@H](CO)NC(=O)[C@H](Cc1c[nH]c2ccccc12)NC(=O)[C@H](Cc1c[nH]cn1)NC(=O)[C@@H]1CCC(=O)N1` [leuprolide acetate], the tumor growth entry in data set [1] is reported as “inhibition of the growth”. The “time to decrease of LH, FSH and testosterone after initiation of treatment” value in data set [2] (continuous administration) is on record as “two to six”. Further, in data set [2] (in vivo, po), the oral activity entry is recorded as “not active when given orally”. Also, the testosterone level result in data set [2] (males, continuous administration) is “reduced to castrate levels”.

As for “GLP-1(7-37) (HAEGTFTSDVSSYLEGQAAKEFIAWLVKGRG; Glucagon-like peptide 1(7-37); UniProt P01275 98-128, looked up) [form of the GLP-1 peptide]”, in the data set on fasting hyperglycemia, the “effect on fasting hyperglycemia” value was “normalize fasting hyperglycemia”.

On to “glucagon-like peptide-1 (7-36) amide (HAEGTFTSDVSSYLEGQAAKEFIAWLVKGR-NH2; listed as Homo sapiens) [GLP-1(7-36)amide]”, for which the “effect on fasting hyperglycemia” value in the data set on fasting hyperglycemia is reported as “normalize fasting hyperglycemia”.
